Measurements reported in patent US20250387357A1 (SpringWorks Therapeutics, Inc., priority 2024, published 2025).

How the values were obtained:
[1] = Pharmacokinetic parameters and characteristics of mirdametinib (Table A); design: species or system human; settings: in vivo
[2] = test system: UGT and CES enzymes; assay: Metabolism, primary pathway; settings: full wording over r33-r36: Metabolism involves glucuronidation and oxidation via UGT and CES enzymes

Q: For `O=C(NOC[C@H](O)CO)c1ccc(F)c(F)c1Nc1ccc(I)cc1F` (single isomer, unassigned) [mirdametinib], which “Excretion: Radioactivity in feces” value [1] is on record?
A: The value was “In feces: 27%”.

Q: What about the “Excretion: Radioactivity in urine” value [1] of the same compound?
A: Its value is “In urine: 68%”.

Q: What about the “Excretion: Unchanged mirdametinib in urine” value [1] of the same compound?
A: The value was “In urine: 0.7%”.

Q: And the “Excretion: Unchanged mirdametinib in urine and feces” value [1]?
A: Its value is “In urine and feces: 9%”.

Q: And the Metabolism primary pathway [2]?
A: Its Metabolism primary pathway is “Metabolism involves”.
